The first assay deals with HCV 1b genotype. The experiment in a line: HCV Replicon assay (HCV-neo replicon cells, wild-type). In kind it is cell-based. To be noted: HCV 1b genotype replicon; class symbols. On the procedure:
An HCV Replicon assay was utilized in the present disclosure, and was prepared, conducted and validated as described in commonly owned PCT/US2006/022197 and in O'Boyle et. al. Antimicrob Agents Chemother. 2005 April; 49 (4):1346-53. Assay methods incorporating luciferase reporters have also been used as described (Apath.com).
HCV-neo replicon cells and replicon cells containing mutations in the NS5A region were used to test the currently described family of compounds. The compounds were determined to have more than 10-fold less inhibitory activity on cells containing mutations than wild-type cells. Thus, the compounds of the present disclosure can be effective in inhibiting the function of the HCV NS5A protein and are understood to be as effective in combinations as previously described in application PCT/US2006/022197 and commonly owned WO/O4014852. Further, the compounds of the present disclosure can be effective against the HCV 1b genotype. It should also be understood that the compounds of the present disclosure can inhibit multiple genotypes of HCV. […] In one embodiment, compounds of the present disclosure are inhibitory versus 1a, 1b, 2a, 2b, 3a, 4a, and 5a genotypes.
On to `COC(=O)N[C@H](C(=O)N1CCC[C@H]1c1nc2cc(-c3cnc(-c4ccc5[nH]c([C@@H]6CCCN6C(=O)[C@@H](NC(=O)OC)C(C)C)nc5c4)o3)ccc2[nH]1)C(C)C` [Example J19, methyl ((1S)-1-(((2S)-2-(5-(2-(2-((2S)-1-((2S)-2-((methoxy-carbonyl)amino)-3-methyl-butanoyl)-2-pyrrolidinyl)-1H-benzimidazol-5-yl)-1,3-oxazol-5-yl)-1H-benzimidazol-2-yl)-1-pyrrolidinyl)carbonyl)-2-methylpropyl) carbamate], for which the EC50 (commonly the midpoint of the concentration-response curve) was below 4.57 nM.

The assay is the same for the next values; noted with them: Hepatitis C virus, HCV 1b genotype replicon; class symbols.
With `O=C([C@H](O)c1ccccc1)N1CCC[C@H]1c1nc2cc(-c3cnc(-c4cccc5[nH]c([C@@H]6CCCN6C(=O)[C@H](O)c6ccccc6)nc45)o3)ccc2[nH]1` [Example J9, (1R)-2-((2S)-2-(4-(5-(2-((2S)-1-((2R)-2-hydroxy-2-phenylacetyl)-2-pyrrolidinyl)-1H-benzimidazol-5-yl)-1,3-oxazol-2-yl)-1H-benzimidazol-2-yl)-1-pyrrolidinyl)-2-oxo-1-phenylethanol], the EC50 was in the range of 4.57 to 99 nM.
Turning to `CN(C)[C@@H](C(=O)N1CCC[C@H]1c1nc2cc(-c3cnc(-c4cccc5[nH]c([C@@H]6CCCN6C(=O)[C@@H](c6ccccc6)N(C)C)nc45)o3)ccc2[nH]1)c1ccccc1` [Example J11, (1R)-2-((2S)-2-(4-(5-(2-((2S)-1-((2R)-2-(dimethyl-amino)-2-phenylacetyl)-2-pyrrolidinyl)-1H-benzimidazol-5-yl)-1,3-oxazol-2-yl)-1H-benzimidazol-2-yl)-1-pyrrolidinyl)-N,N-dimethyl-2-oxo-1-phenyl-ethanamine], the concentration for a half-maximal effect (EC50) was below 4.57 nM.
On to `CC(=O)N[C@@H](C(=O)N1CCC[C@H]1c1nc2cc(-c3cnc(-c4cccc5[nH]c([C@@H]6CCCN6C(=O)[C@@H](c6ccccc6)N(C)C)nc45)o3)ccc2[nH]1)c1ccccc1` [Example J11.1, N-((1R)-2-((2S)-2-(5-(2-(2-((2S)-1-((2R)-2-(dimethyl-amino)-2-phenylacetyl)-2-pyrrolidinyl)-1H-benzimidazol-4-yl)-1,3-oxazol-5-yl)-1H-benzimidazol-2-yl)-1-pyrrolidinyl)-2-oxo-1-phenylethyl) acetamide], for which the EC50 is below 4.57 nM.
With `CC(=O)N[C@H](C(=O)N1CCC[C@H]1c1nc2cc(-c3cnc(-c4cccc5[nH]c([C@@H]6CCCN6C(=O)[C@@H](c6ccccc6)N(C)C)nc45)o3)ccc2[nH]1)c1ccccc1` [Example J11.2, N-((1S)-2-((2S)-2-(5-(2-(2-((2S)-1-((2R)-2-(dimethyl-amino)-2-phenylacetyl)-2-pyrrolidinyl)-1H-benzimidazol-4-yl)-1,3-oxazol-5-yl)-1H-benzimidazol-2-yl)-1-pyrrolidinyl)-2-oxo-1-phenylethyl) acetamide], the EC50 is below 4.57 nM.
In the case of `CC(=O)N[C@@H](C(=O)N1CCC[C@H]1c1nc2cc(-c3cnc(-c4cccc5[nH]c([C@@H]6CCCN6C(=O)[C@H](NC(C)=O)c6ccccc6)nc45)o3)ccc2[nH]1)c1ccccc1` [Example J12, N-((1R)-2-((2S)-2-(4-(5-(2-((2S)-1-((2R)-2-acetamido-2-phenylacetyl)-2-pyrrolidinyl)-1H-benzimidazol-5-yl)-1,3-oxazol-2-yl)-1H-benzimidazol-2-yl)-1-pyrrolidinyl)-2-oxo-1-phenylethyl) acetamide], the EC50 is below 4.57 nM.
In the case of `O=C(C(c1ccccc1)N1CCC(O)CC1)N1CCC[C@H]1c1nc2cc(-c3cnc(-c4cccc5[nH]c([C@@H]6CCCN6C(=O)C(c6ccccc6)N6CCC(O)CC6)nc45)o3)ccc2[nH]1` (stereo partly drawn) [Example J13, 1-(2-((2S)-2-(4-(5-(2-((2S)-1-((4-hydroxy-1-piperidinyl) (phenyl)acetyl)-2-pyrrolidinyl)-1H-benzimidazol-5-yl)-1,3-oxazol-2-yl)-1H-benzimidazol-2-yl)-1-pyrrolidinyl)-2-oxo-1-phenylethyl)-4-piperidinol], the EC50 is below 4.57 nM.
As for `CN1CCN([C@@H](C(=O)N2CCC[C@H]2c2nc3cc(-c4cnc(-c5cccc6[nH]c([C@@H]7CCCN7C(=O)[C@@H](c7ccccc7)N7CCN(C)CC7)nc56)o4)ccc3[nH]2)c2ccccc2)CC1` [Example J14, 2-((2S)-1-((2R)-2-(4-methyl-1-piperazinyl)-2-phenylacetyl)-2-pyrrolidinyl)-4-(5-(2-((2S)-1-((2R)-2-(4-methyl-1-piperazinyl)-2-phenylacetyl)-2-pyrrolidinyl)-1H-benzimidazol-5-yl)-1,3-oxazol-2-yl)-1H-benzimidazole], the EC50 was below 4.57 nM.
For `CN1CCN(C(C(=O)N2CCC[C@H]2c2nc3cc(-c4cnc(-c5cccc6[nH]c([C@@H]7CCCN7C(=O)C(c7ccccc7)N7CCN(C)CC7)nc56)o4)ccc3[nH]2)c2ccccc2)CC1` (stereo partly drawn) [Example J14.1, 2-((2S)-1-((4-methyl-1-piperazinyl) (phenyl)acetyl)-2-pyrrolidinyl)-4-(5-(2-((2S)-1-((4-methyl-1-piperazinyl) (phenyl)acetyl)-2-pyrrolidinyl)-1H-benzimidazol-5-yl)-1,3-oxazol-2-yl)-1H-benzimidazole], the EC50 lay in the range of 4.57 to 99 nM.
`O=C(Cc1ccccc1)N1CCC[C@H]1c1nc2cc(-c3cnc(-c4ccc5nc([C@@H]6CCCN6C(=O)Cc6ccccc6)[nH]c5c4)o3)ccc2[nH]1` [Example J16]: the EC50 was in the range of 4.57 to 99 nM.
For `O=C([C@H](O)c1ccccc1)N1CCC[C@H]1c1nc2cc(-c3cnc(-c4ccc5nc([C@@H]6CCCN6C(=O)[C@H](O)c6ccccc6)[nH]c5c4)o3)ccc2[nH]1` [Example J17, (1R)-2-((2S)-2-(5-(2-(2-((2S)-1-((2R)-2-hydroxy-2-phenylacetyl)-2-pyrrolidinyl)-1H-benzimidazol-6-yl)-1,3-oxazol-5-yl)-1H-benzimidazol-2-yl)-1-pyrrolidinyl)-2-oxo-1-phenylethanol], the EC50 was below 4.57 nM.
As for `C[C@@](O)(C(=O)N1CCC[C@H]1c1nc2cc(-c3cnc(-c4ccc5nc([C@@H]6CCCN6C(=O)[C@@](C)(O)c6ccccc6)[nH]c5c4)o3)ccc2[nH]1)c1ccccc1` [Example J18, (2S)-1-((2S)-2-(5-(2-(2-((2S)-1-((2S)-2-hydroxy-2-phenyl-propanoyl)-2-pyrrolidinyl)-1H-benzimidazol-6-yl)-1,3-oxazol-5-yl)-1H-benzimidazol-2-yl)-1-pyrrolidinyl)-1-oxo-2-phenyl-2-propanol], the EC50 was below 4.57 nM.

The same assay, now with this note: Hepatitis C virus, HCV 1b genotype replicon; numeric values.
For `COC(=O)N[C@H](C(=O)N1CCC[C@H]1c1nc2cc(-c3cnc(-c4cccc5[nH]c([C@@H]6CCCN6C(=O)[C@@H](NC(=O)OC)C(C)C)nc45)o3)ccc2[nH]1)C(C)C` [Example J10, methyl ((1S)-1-(((2S)-2-(4-(5-(2-((2S)-1-((2S)-2-(methoxy-carbonyl)amino)-3-methyl-butanoyl)-2-pyrrolidinyl)-1H-benzimidazol-5-yl)-1,3-oxazol-2-yl)-1H-benzimidazol-2-yl)-1-pyrrolidinyl)carbonyl)-2-methylpropyl) carbamate], the EC50 is 0.007 nM.
Regarding `COc1cccc2c(C(=O)N3CCC[C@H]3c3nc4cc(-c5cnc(-c6cccc7[nH]c([C@@H]8CCCN8C(=O)c8nc(Cl)cc9c(OC)cccc89)nc67)o5)ccc4[nH]3)nc(Cl)cc12` [Example J15, 3-chloro-1-(((2S)-2-(4-(5-(2-((2S)-1-((3-chloro-5-methoxy-1-isoquinolinyl)carbonyl)-2-pyrrolidinyl)-1H-benzimidazol-5-yl)-1,3-oxazol-2-yl)-1H-benzimidazol-2-yl)-1-pyrrolidinyl)carbonyl)-5-methoxy-isoquinoline], the EC50 is above 10000 nM.

For the origin of these results see US7906655B2, “Hepatitis C virus inhibitors” (Bristol-Myers Squibb Company, priority 2008, dated 2011).
